Data reported in ChEMBL document CHEMBL1158951, “Additional bioactive heptenes from Melodorum fruticosum” (1991).
Values after ≈ are worked out from the molar mass of the structure shown.

Legend:
Assay type in all cases: functional
Conditions in all cases: read-out: ED50 (the source's name)
HT-29 = assay: Cytotoxicity against human HT-29 cells
Malme-3M = assay: Cytotoxicity against human MALME-3M cells
A549 = assay: Cytotoxicity against human A549 cells
MCF7 = assay: Cytotoxicity against human MCF7 cells
SK-MEL-5 = assay: Cytotoxicity against human SK-MEL-5 cells

**Q.** With `COC(=O)/C=C/C(=O)CC(O)COC(=O)c1ccccc1` (stereo unspecified) as the compound, how does the EC50 (HT-29) read?
**A.** 0.253 µg/mL (≈ 0.866 µM)

**Q.** What about the EC50 (Malme-3M) of the same compound?
**A.** 1.1 µg/mL (≈ 3.76 µM)

**Q.** What about the EC50 (A549) of the same compound?
**A.** 3.28 µg/mL (≈ 11.2 µM)

**Q.** What about the EC50 (MCF7) of the same compound?
**A.** 1.92 µg/mL (≈ 6.57 µM)

**Q.** And the EC50 (SK-MEL-5)?
**A.** 1.04 µg/mL (≈ 3.56 µM)

**Q.** What does the source list for `CC(=O)OC(/C=C1/C=CC(=O)O1)COC(=O)c1ccccc1` (stereo unspecified) [ACETYLMELODORINOL]?
**A.** EC50 (HT-29): 2.38 µg/mL (≈ 7.87 µM); EC50 (Malme-3M): 2.74 µg/mL (≈ 9.06 µM); EC50 (A549): 2.89 µg/mL (≈ 9.56 µM); EC50 (MCF7): 1.96 µg/mL (≈ 6.48 µM); EC50 (SK-MEL-5): 4.21 µg/mL (≈ 13.9 µM)

**Q.** Which results are given for `CCOC(=O)/C=C\C(=O)/C=C/COC(=O)c1ccccc1` [HOMOISOMELODIENONE]?
**A.** EC50 (HT-29): 36.3 µg/mL (≈ 126 µM); EC50 (A549): 6.7 µg/mL (≈ 23.2 µM); EC50 (MCF7): 4.26 µg/mL (≈ 14.8 µM)

**Q.** With `CCOC(=O)/C=C/C(=O)/C=C/COC(=O)c1ccccc1` [HOMOMELODIENONE] as the compound, how does the EC50 (HT-29) read?
**A.** 37.9 µg/mL (≈ 131 µM)

**Q.** And the EC50 (A549)?
**A.** 36.9 µg/mL (≈ 128 µM)

**Q.** And the EC50 (MCF7)?
**A.** 25.6 µg/mL (≈ 88.8 µM)

**Q.** Which results are given for `O=C1C=C/C(=C/C(O)COC(=O)c2ccccc2)O1` (stereo unspecified) [MELODORINOL]?
**A.** EC50 (HT-29): 2.87 µg/mL (≈ 11 µM); EC50 (Malme-3M): 3.32 µg/mL (≈ 12.8 µM); EC50 (A549): 5.89 µg/mL (≈ 22.6 µM); EC50 (MCF7): 1.99 µg/mL (≈ 7.65 µM); EC50 (SK-MEL-5): 3.75 µg/mL (≈ 14.4 µM)
